Measured values taken from patent publication US20190380978A1, “SOLID ORAL DOSAGE FORMS OF 2R,6R-HYDROXYNORKETAMINE OR DERIVATIVES THEREOF” (priority 2016, published 2019).
Where a name gives a salt, the structure may show the parent alone.

Experiments:
UGT2B7 = UGT2B7 (Homo sapiens, UniProt P16662); assay: UGT inhibition assay, UGT2B7; format: in vitro ADME
UGT1A1 = biological target: T1, UGT1A1 (Homo sapiens, UniProt P22309); assay: UGT inhibition assay, UGT1A1; format: in vitro ADME
T1 sequence (P22309 26-533): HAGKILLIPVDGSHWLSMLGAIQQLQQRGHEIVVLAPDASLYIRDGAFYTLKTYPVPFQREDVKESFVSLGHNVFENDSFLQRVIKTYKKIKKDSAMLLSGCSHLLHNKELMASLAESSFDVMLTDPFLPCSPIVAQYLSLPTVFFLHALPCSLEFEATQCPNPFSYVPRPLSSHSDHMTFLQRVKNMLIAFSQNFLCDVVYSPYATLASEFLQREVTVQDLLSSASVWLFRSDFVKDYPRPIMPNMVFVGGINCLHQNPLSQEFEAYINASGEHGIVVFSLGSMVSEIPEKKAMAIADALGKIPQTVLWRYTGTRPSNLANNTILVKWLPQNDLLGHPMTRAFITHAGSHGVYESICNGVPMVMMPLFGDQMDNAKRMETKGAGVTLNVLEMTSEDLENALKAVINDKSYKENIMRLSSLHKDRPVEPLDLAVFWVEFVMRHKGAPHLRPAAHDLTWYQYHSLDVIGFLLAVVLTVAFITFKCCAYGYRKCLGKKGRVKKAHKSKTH
From the text: 2R,6R-hydroxynorketamine was therefore investigated for its potential to inhibit this isozyme, along with that of the major UGT isozyme, UGT1A1, using a UGT inhibition assay.

plasma binding proteins = details: background statement on SSRIs; cited from earlier work
in vitro = details: human

Chain of UGT2B7 (P16662 24-529): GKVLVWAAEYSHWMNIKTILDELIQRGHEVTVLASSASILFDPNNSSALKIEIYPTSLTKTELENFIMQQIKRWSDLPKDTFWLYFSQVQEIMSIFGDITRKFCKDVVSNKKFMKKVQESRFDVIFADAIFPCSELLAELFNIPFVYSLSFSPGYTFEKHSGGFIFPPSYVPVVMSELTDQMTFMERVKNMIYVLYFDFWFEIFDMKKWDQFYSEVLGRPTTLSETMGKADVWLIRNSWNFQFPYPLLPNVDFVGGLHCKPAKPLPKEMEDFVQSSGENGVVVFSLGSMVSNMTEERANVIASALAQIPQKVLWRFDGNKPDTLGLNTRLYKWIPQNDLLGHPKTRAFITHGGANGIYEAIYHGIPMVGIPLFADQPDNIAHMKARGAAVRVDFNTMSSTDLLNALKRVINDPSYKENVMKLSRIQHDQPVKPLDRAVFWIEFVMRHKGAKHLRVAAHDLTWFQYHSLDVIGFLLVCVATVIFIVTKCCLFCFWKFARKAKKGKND

N[C@@]1(c2ccccc2Cl)CCC[C@@H](O)C1=O [2R-6R-Hydroxynorketamine Hydrochloride, 2R,6R-hydroxynorketamine hydrochloride]
IC50 (UGT2B7): > 100 µM | IC50 (UGT1A1): > 100 µM

COC(=O)N[C@H](C(=O)N[C@@H](Cc1ccccc1)[C@@H](O)CN(Cc1ccc(-c2ccccn2)cc1)NC(=O)[C@@H](NC(=O)OC)C(C)(C)C)C(C)(C)C [Atazanavir]
IC50 (UGT1A1): 0.153 µM

CNCCC(Oc1ccc(C(F)(F)F)cc1)c1ccccc1 (centres unmarked) [fluoxetine]
protein bound (plasma binding proteins): 94%

Fc1ccc([C@@H]2CCNC[C@H]2COc2ccc3c(c2)OCO3)cc1 [paroxetine]
protein bound (plasma binding proteins): 95%

CC(C)NCC(O)COc1cccc2ccccc12 (centres unmarked) [propranolol, reference compound]
recovery (in vitro; Caco-2, Direction = A2B Mean % Recovery, Caco-2, A2B): 71.1% | Papp A→B (in vitro; Caco-2, Direction = A2B Mean Papp, Caco-2, A2B, mean, n 2): 26.7 ×10⁻⁶ cm/s | Papp A→B (in vitro; Caco-2, Direction = A2B Papp Replicate 1, Caco-2, A2B, replicate 1): 26 ×10⁻⁶ cm/s | Papp A→B (in vitro; Caco-2, Direction = A2B Papp Replicate 2, Caco-2, A2B, replicate 2): 27.4 ×10⁻⁶ cm/s | recovery (in vitro; Caco-2, Direction = B2A Mean % Recovery, Caco-2, B2A): 82.8% | Papp B→A (in vitro; Caco-2, Direction = B2A Papp Replicate 2, Caco-2, B2A, replicate 2): 26.2 ×10⁻⁶ cm/s
